In PubChem BioAssay AID220 (DTP/NCI, 2004):
Where “and” joins values, the source holds several entries; their conditions need not be identical. Identical values can stand only once. Records with an inconclusive call do not appear. Starred links: 1 amine or outer side, 2 acyl side, 3 side chain; linkers in the order of their positions; H or OH if unused. Non-standard residues stand in square brackets, D forms with d. Residues, ends and D or L forms follow the SMILES beside them. *: point of attachment. X2 = CCC(=O)CC1CC(C)CC(C(=O)[*:2])N1[*:1]; X1 = CCCCCCCCC(C)C(=O)*; Aib = CC(C)(N)C(=O)O; X3 = CC(CN(C)CCO)N*

Test system: CD8F1 mice, subcutaneous mammary adenocarcinoma, T/C%
Experiment: NCI In Vivo Anticancer Drug Screen. Data for tumor model Mammary Adenocarcinoma CD8F1 (subcutaneous) in CD8F1
Conditions: higher = larger tumour
Method in brief: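 Tumor-bearing mice, transplantable model; readout survival or tumor size; value = treated (T) / vehicle control (C).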

[1] = endpoint: median tumor weight change, dose: 125.0 mg/kg/injection, schedule: Q01DX001 (ip), vehicle: saline
[2] = endpoint: median tumor weight change, dose: 62.5 mg/kg/injection, schedule: Q01DX001 (ip), vehicle: suspension in saline
[3] = endpoint: median tumor weight change, dose: 125.0 mg/kg/injection, schedule: Q01DX001 (ip), vehicle: suspension in saline
[4] = endpoint: median tumor weight change, dose: 250.0 mg/kg/injection, schedule: Q01DX001 (ip), vehicle: suspension in saline
[5] = endpoint: median tumor weight (est.), dose: 6.25 mg/kg/injection, schedule: Q07DX005 (ip), vehicle: saline
[6] = endpoint: median tumor weight (est.), dose: 100.0 mg/kg/injection, schedule: Q07DX005 (ip), vehicle: saline

CC(=O)N(C)c1ccc(Nc2cc(C)[nH]c3ccc4ncnc4c23)cc1
T/C [1]: 34 % of control and 46 % of control

O=c1[nH]c(=O)n(C2CC(O)C(CO)O2)cc1C(F)(F)F (configuration not stated)
T/C (endpoint: mean tumor weight, dose: 125.0 mg/kg/injection, schedule: Q07DX005 (ip), vehicle: saline): 65 % of control | T/C (endpoint: mean tumor weight, dose: 250.0 mg/kg/injection, schedule: Q07DX005 (ip), vehicle: saline): 84 % of control | T/C (endpoint: mean tumor weight, dose: 250.0 mg/kg/injection, schedule: Q07DX008 (ip), vehicle: saline): 184 % of control | T/C (endpoint: mean tumor weight, dose: 500.0 mg/kg/injection, schedule: Q07DX005 (ip), vehicle: saline): 59 % of control | T/C (endpoint: mean tumor weight, dose: 500.0 mg/kg/injection, schedule: Q07DX008 (ip), vehicle: saline): 55 % of control | T/C (endpoint: mean tumor weight, dose: 750.0 mg/kg/injection, schedule: Q07DX008 (ip), vehicle: saline): 68 % of control | T/C (endpoint: median tumor weight (est.), dose: 12.5 mg/kg/injection, schedule: Q07DX005 (ip), vehicle: suspension in saline): 28 % of control | T/C (endpoint: median tumor weight (est.), dose: 250.0 mg/kg/injection, schedule: Q07DX005 (ip), vehicle: suspension in saline): 100 % of control | T/C (endpoint: median tumor weight (est.), dose: 500.0 mg/kg/injection, schedule: Q07DX005 (ip), vehicle: suspension in saline): 26 % of control

Cc1ccc(C(=O)[O][Hg][CH2]C2COC([CH2][Hg][O]C(=O)c3ccc(C)cc3)CO2)cc1 (configuration not stated)
T/C (endpoint: median tumor weight (est.), dose: 6.25 mg/kg/injection, schedule: Q07DX005 (ip), vehicle: Klucel (hydroxypropylcellulose) (HPC)): 60 % of control | T/C (endpoint: median tumor weight (est.), dose: 12.5 mg/kg/injection, schedule: Q07DX005 (ip), vehicle: Klucel (hydroxypropylcellulose) (HPC)): 72 % of control | T/C (endpoint: median tumor weight (est.), dose: 25.0 mg/kg/injection, schedule: Q07DX005 (ip), vehicle: Klucel (hydroxypropylcellulose) (HPC)): 117 % of control | T/C (endpoint: median tumor weight (est.), dose: 50.0 mg/kg/injection, schedule: Q07DX005 (ip), vehicle: Klucel (hydroxypropylcellulose) (HPC)): 57 % of control | T/C (endpoint: median tumor weight (est.), dose: 100.0 mg/kg/injection, schedule: Q07DX005 (ip), vehicle: Klucel (hydroxypropylcellulose) (HPC)): 162 % of control

O=c1n(CC2CO2)c(=O)n(CC2CO2)n1CC1CO1 (configuration not stated)
T/C (endpoint: median tumor weight change, dose: 62.5 mg/kg/injection, schedule: Q01DX001 (ip), vehicle: saline): 29 % of control

CCCCCCCCC(C)C(=O)N1CCCC1C(=O)N1C(CC(=O)CC)CC(C)CC1C(=O)NC(C)C(=O)NC(C)(C)C(=O)NC(C)(C)C(=O)NC(C(=O)NC(C)C(=O)NC(C)(C)C(=O)NC(C)(C)C(=O)NC(C)CN(C)CCO)C(C)CC (configuration not stated) (X1-P[X2]A[Aib][Aib]IA[Aib][Aib]-X3; configuration not given here)
T/C (endpoint: median tumor weight change, dose: 3.0 mg/kg/injection, schedule: Q01DX001 (ip), vehicle: saline with Tween-80): 100 % of control | T/C (endpoint: median tumor weight change, dose: 3.12 mg/kg/injection, schedule: Q01DX001 (ip), vehicle: other): 123 % of control

O=C(O)C(O)C(O)C1[O][Sb][O]C1C(=O)O (configuration not stated)
T/C (endpoint: median tumor weight change, dose: 31.0 mg/kg/injection, schedule: Q01DX001 (ip), vehicle: saline): 115 % of control | T/C (endpoint: median tumor weight change, dose: 62.0 mg/kg/injection, schedule: Q01DX001 (ip), vehicle: saline): 93 % of control

CCCCCCCCCCCCCCC/C([O-])=N/[N+](C)(C)CC(C)O (configuration not stated)
T/C [1]: 49 % of control | T/C (endpoint: median tumor weight change, dose: 250.0 mg/kg/injection, schedule: Q01DX001 (ip), vehicle: saline): 96 % of control | T/C (endpoint: median tumor weight change, dose: 500.0 mg/kg/injection, schedule: Q01DX001 (ip), vehicle: saline): 69 % of control

C[C@@H]1C[C@@H]([C@H](O)CC2CC(=O)NC(=O)C2)C(=O)[C@@H](C)C1
T/C [2]: 57 % of control | T/C [3]: 72 % of control | T/C [4]: 57 % of control

N/C(=N\O)c1cn(C2OC(CO)C(O)C2O)c2ncnc(N)c12 (configuration not stated)
T/C (endpoint: median tumor weight (est.), dose: 4.0 mg/kg/injection, schedule: Q07DX005 (ip), vehicle: saline): 100 % of control | T/C (endpoint: median tumor weight (est.), dose: 8.0 mg/kg/injection, schedule: Q07DX005 (ip), vehicle: saline): 112 % of control

CC(/C=N/N=C(N)N)=N\N=C(N)N
T/C [5]: 100 % of control | T/C (endpoint: median tumor weight (est.), dose: 12.5 mg/kg/injection, schedule: Q07DX005 (ip), vehicle: saline): 85 % of control | T/C (endpoint: median tumor weight (est.), dose: 25.0 mg/kg/injection, schedule: Q07DX005 (ip), vehicle: saline): 110 % of control | T/C [6]: 67 % of control

O=C(Nc1ccc(C2=NCCN2)cc1)c1ccc(C(=O)Nc2ccc(C3=NCCN3)cc2)c(Cl)c1
T/C (endpoint: mean tumor weight, dose: 6.25 mg/kg/injection, schedule: Q07DX004 (ip), vehicle: saline with Tween-80): 70 % of control | T/C (endpoint: mean tumor weight, dose: 12.5 mg/kg/injection, schedule: Q07DX004 (ip), vehicle: saline with Tween-80): 77 % of control | T/C (endpoint: mean tumor weight, dose: 25.0 mg/kg/injection, schedule: Q07DX004 (ip), vehicle: saline with Tween-80): 71 % of control

CCCCCCOC(CN(C)C)C(Cl)(Cl)Cl (configuration not stated)
T/C (endpoint: median tumor weight change, dose: 100.0 mg/kg/injection, schedule: Q01DX001 (ip), vehicle: saline with Tween-80): 53 % of control | T/C (endpoint: median tumor weight change, dose: 125.0 mg/kg/injection, schedule: Q01DX001 (ip), vehicle: saline with Tween-80): 173 % of control | T/C (endpoint: median tumor weight change, dose: 200.0 mg/kg/injection, schedule: Q01DX001 (ip), vehicle: saline with Tween-80): 68 % of control | T/C (endpoint: median tumor weight change, dose: 250.0 mg/kg/injection, schedule: Q01DX001 (ip), vehicle: saline with Tween-80): 81 % of control | T/C (endpoint: median tumor weight change, dose: 400.0 mg/kg/injection, schedule: Q01DX001 (ip), vehicle: saline with Tween-80): 93 % of control | T/C (endpoint: median tumor weight change, dose: 500.0 mg/kg/injection, schedule: Q01DX001 (ip), vehicle: saline with Tween-80): 72 % of control | T/C (endpoint: median tumor weight change, dose: 1000.0 mg/kg/injection, schedule: Q01DX001 (ip), vehicle: saline with Tween-80): 79 % of control

O=C1N[C@H]2[C@H](CS[C@H]2CCCCC(=O)N(CCP(c2ccccc2)c2ccccc2)CCP(c2ccccc2)c2ccccc2)N1
T/C (endpoint: median tumor weight change, dose: 125.0 mg/kg/injection, schedule: Q01DX001 (ip), vehicle: Klucel (hydroxypropylcellulose) (HPC)): 97 % of control | T/C (endpoint: median tumor weight change, dose: 250.0 mg/kg/injection, schedule: Q01DX001 (ip), vehicle: Klucel (hydroxypropylcellulose) (HPC)): 70 % of control | T/C (endpoint: median tumor weight change, dose: 500.0 mg/kg/injection, schedule: Q01DX001 (ip), vehicle: Klucel (hydroxypropylcellulose) (HPC)): 85 % of control | T/C (endpoint: median tumor weight change, dose: 1000.0 mg/kg/injection, schedule: Q01DX001 (ip), vehicle: Klucel (hydroxypropylcellulose) (HPC)): 55 % of control | T/C (endpoint: median tumor weight change, dose: 2000.0 mg/kg/injection, schedule: Q01DX001 (ip), vehicle: Klucel (hydroxypropylcellulose) (HPC)): 56 % of control

CC1(C)N=C(N)N=C(N)N1c1ccc(F)c(C(F)(F)F)c1
T/C [5]: 97 % of control | T/C [6]: 61 % of control

CC1c2ccccc2CC(CCN(C)C)c2ccccc21 (configuration not stated)
T/C (endpoint: median tumor weight change, dose: 1.95 mg/kg/injection, schedule: Q01DX001 (ip), vehicle: saline with Tween-80): 76 % of control | T/C (endpoint: median tumor weight change, dose: 3.9 mg/kg/injection, schedule: Q01DX001 (ip), vehicle: saline with Tween-80): 71 % of control | T/C (endpoint: median tumor weight change, dose: 7.8 mg/kg/injection, schedule: Q01DX001 (ip), vehicle: saline with Tween-80): 87 % of control | T/C (endpoint: median tumor weight change, dose: 15.62 mg/kg/injection, schedule: Q01DX001 (ip), vehicle: saline with Tween-80): 73 % of control

CCCCCC[Se][Se]CCCCCC
T/C (endpoint: median tumor weight change, dose: 31.25 mg/kg/injection, schedule: Q01DX001 (ip), vehicle: Klucel (hydroxypropylcellulose) (HPC)): 116 % of control | T/C (endpoint: median tumor weight change, dose: 62.5 mg/kg/injection, schedule: Q01DX001 (ip), vehicle: Klucel (hydroxypropylcellulose) (HPC)): 159 % of control

Cn1c(=O)c2ncnnc2n(C)c1=O
T/C (endpoint: median tumor weight (est.), dose: 4.7 mg/kg/injection, schedule: Q07DX005 (ip), vehicle: Klucel (hydroxypropylcellulose) (HPC)): 59 % of control | T/C (endpoint: median tumor weight (est.), dose: 9.4 mg/kg/injection, schedule: Q07DX005 (ip), vehicle: Klucel (hydroxypropylcellulose) (HPC)): 63 % of control | T/C (endpoint: median tumor weight (est.), dose: 18.8 mg/kg/injection, schedule: Q07DX005 (ip), vehicle: Klucel (hydroxypropylcellulose) (HPC)): 52 % of control

CCCCNC(C)C1(O)Cc2c(O)c3c(c(O)c2C(OC2CC(N)C(O)C(C)O2)C1)C(=O)c1c(OC)cccc1C3=O (configuration not stated)
T/C (endpoint: median tumor weight (est.), dose: 28.5 mg/kg/injection, schedule: Q07DX005 (ip), vehicle: water): 100 % of control | T/C (endpoint: median tumor weight (est.), dose: 42.7 mg/kg/injection, schedule: Q07DX005 (ip), vehicle: water): 154 % of control | T/C (endpoint: median tumor weight (est.), dose: 64.0 mg/kg/injection, schedule: Q07DX005 (ip), vehicle: water): 66 % of control | T/C (endpoint: median tumor weight (est.), dose: 96.0 mg/kg/injection, schedule: Q07DX005 (ip), vehicle: water): 20 % of control | T/C [2]: 98 % of control | T/C [3]: 65 % of control | T/C [4]: 74 % of control | T/C (endpoint: median tumor weight change, dose: 500.0 mg/kg/injection, schedule: Q01DX001 (ip), vehicle: suspension in saline): 15 % of control | T/C (endpoint: median tumor weight change, dose: 1000.0 mg/kg/injection, schedule: Q01DX001 (ip), vehicle: suspension in saline): 3 % of control

CCc1nc(N)nc(N)c1-c1ccc(Cl)c(Cl)c1
T/C (endpoint: mean tumor weight (est.), dose: 40.0 mg/kg/injection, schedule: Q07DX003 (ip), vehicle: saline with Tween-80): 107 % of control | T/C (endpoint: mean tumor weight (est.), dose: 50.0 mg/kg/injection, schedule: Q07DX003 (ip), vehicle: saline with Tween-80): 100 % of control | T/C (endpoint: mean tumor weight (est.), dose: 60.0 mg/kg/injection, schedule: Q07DX003 (ip), vehicle: saline with Tween-80): 93 % of control | T/C (endpoint: mean tumor weight (est.), dose: 60.0 mg/kg/injection, schedule: Q07DX004 (ip), vehicle: saline with Tween-80): 35 % of control | T/C (endpoint: mean tumor weight (est.), dose: 80.0 mg/kg/injection, schedule: Q07DX004 (ip), vehicle: saline with Tween-80): 50 % of control
